According to patent publication US8999890B2, “Signaling compositions, methods, and systems for effecting plant burndown and herbicide enhancement” (KamTec, priority 2013, dated 2015):
Several values for one entry are separate records, joined by “and”; a condition that tells them apart may be missing. Identical values can stand only once.

How the values were obtained:
Format in all cases: in vivo
‘M-202’ type rice = test: Rice seed soaking treatment, 24 hours (Example II); conditions: for Biomass / Height / Tillering: 24 hrs soak, tap water irrigation, vs Set 1 (water)
Protocol: In this preferred embodiment of the present invention, seeds are soaked in prepared bio-regulator solutions for a period of 24 hours. Rice seeds were selected from the same ‘M-202’ type grains as in the previous study. The bio-regulator solutions were prepared using 5 ppm BMPA solution. The solution was drained and seeds planted in starter plastic containers filled with potting soil. After germination and plant growth reaching height of four inches, rice seedlings were transplanted from their greenhouse containers to six-inch diameter plastic containers and placed outdoor. Again, two sets of three pots for the control and test group were used.
These studies were also carried out using an increased amount of BMPA. The amount was increased from 1 ppm to 5 ppm, and the results of the study were similar to the results outlined in the paragraph above.

[1] = test system: aphid infestation on cotton Bt plant; test: Cotton Bt seed soaking, aphid infestation (Example VII)
Protocol: In this preferred embodiment of the present invention, seeds were soaked for a period of 3 hours in the bio-regulator solution. Cotton Bt were selected and studied to determine if bio-regulator chemistry will enhance or influence the inserted Bt genes of the transgenic plant. The seeds were separated into two different sets on July 2. The first set, Set 1, was soaked in 5 ppm BMPA solution with 0.05% Kinetic®. The second set, Set 2, was soaked in water with 0.05% v/v Kinetic®. The solution was drained and the treated seeds planted in starter plastic trays. After germination and after the seedlings reached the height of four inches, the cotton Bt plants were transplanted into larger six-inch plastic containers. The cotton plants were placed outdoors for the duration of the study. The different sets of plants were regularly observed throughout this study.

[2] = test system: sunflower, Melody variety; test: Sunflower seed soaking, field plots (Example XI); conditions: for % Moist: control 12.53; for Wt at 6% Moist: control 60.74; for Wt. at 6 % Moist: normalized to 6% seed moisture content
Excerpt: In this preferred embodiment of the present invention, sunflower seeds were selected from the Melody variety and were soaked for three hours in solutions containing 0.05% Tween 20 and BMTA or BMPA, at a concentration of 3 ppm. Another group of seeds of the same variety was soaked in a solution with only in 0.05% Tween 20 added (control). Following soaking, seeds were desiccated to storage moisture contents and BMTA, BMPA and control seeds were sown in three twenty-five foot plots (Reps) each on May 21 (plots were arranged in a randomized block design). On September 16, sunflower heads were harvested, with a harvest of around 20 heads per plot/Rep on average. The heads were hand-threshed to collect seeds. Moisture, count, and weight data was collected on seeds from each head.

[3] = test system: ‘M-202’ medium-grain rice (Oryza sativa L.); test: Rice seed soaking treatment with NaCl irrigation (Example I)
Protocol: In another preferred embodiment of the present invention, seeds are soaked in prepared bio-regulator solutions for a period of three hours. Rice seeds were selected from ‘M-202’ medium-grain rice (Oryza sativa L.), (Reg. no 72) PI494105 type grains; this selection was meant to represent a typical California rice seed, and was not meant to be limiting. The bio-regulator solutions are prepared using 5 ppm BMTA solution with 0.05% v/v Kinetic® made by Helena Chemical Company. The solution was drained and the seeds planted in starter plastic containers with potting soil. After germination and having grown to 4 inches in height, the plants were transplanted into 6 inch diameter plastic containers. Two sets of three pots each were set up for this study; one set for the test group and one set for the control group. Both the control and test studies were irrigated with 1500 ppm NaCl solution from time of planting until the study was completed. The purpose of the NaCl irrigation was to determine the effect of the bio-regulator treatment in regards to salt tolerances.

geranium slips = test: Treatment of geranium slips (Example III)
Protocol: In this preferred embodiment of the present invention, according to common geranium cutting means, geraniums were slipped into 18 slips of similar length. In this example the slips had no flower buds. The slips were separated into four different sets: three slips each in three of the sets, and then nine slips in the final set. The slips are then treated with bio-regulator solutions formed from compositions from the different groups and water. In the first set, the slips were treated with BMVE solution; in the second set, the slips were treated with BMTA solution; in the third set, the slips were treated with BMIA in bromide solution; and, in the fourth set, the nine slips were treated with water.
The treatment with bio-regulator solution preferably occurs in the initial planting of the geranium slips, but can also occur at any time from the forming of the geranium slips up to and including the transplanting of the slips. The treatment can occur after transplanting, but this is not the preferred method. […]
The study associated with this embodiment is summarized in Table 3-A below, where Set 1 is the control group and Set 2 is the test group. […] The ratios for Table 3-C are calculated by totaling the heights grown by each slip in each set and comparing it to the control counterpart that was grown in similar environmental conditions, without the treatment of the bio-regulator solutions. […]

[4] = mean over the three Reps, control 65.47
[5] = mean over the three Reps, control 1062
[6] = mean over the three Reps, control 2676
[7] = per Rep (plot), 3 ppm, three hours soak
[8] = per Rep, estimate based on planting rate of 20,000 seeds/acre
[9] = BMTA soln. 5 ppm, 3 hours seed soak, NaCl soln. irrigation, vs Set 1 (tap water)

| Structure (SMILES) | % Moist ([2]; mean over the three Reps) [%] | Wt at 6% Moist ([2]; mean over the three Reps) | Fresh Seed Wt. [2, 4] [g] | Seed Count [2, 5] | Yield @ 20,000 Plants/Acre [2, 6] [lbs] | % Moist (seed moisture content) [2, 7] | Fresh Seed Wt. [2, 7] | Seed Count [2, 7] | Yield @ 20,000 Plants/Acre [2, 8] | Wt. at 6 % Moist ([2]; per Rep) | also measured |
| --- | --- | --- | --- | --- | --- | --- | --- | --- | --- | --- | --- |
| CN(CCOC(=O)COc1ccccc1)Cc1ccccc1 [BMPA] | 13.27 | 64.29 | 69.75 | 1071 | 2832 | 13.52% and 13.93% and 12.37% | 78.24 gm and 65.01 gm and 65.99 gm | 1185 and 977 and 1052 | 3171 lbs and 2617 lbs and 2708 lbs | 71.99 and 59.42 and 61.46 | Observed growth from planting through completion of the study (‘M-202’ type rice; 5 ppm BMPA, 24 hours soak): enhanced growth; Biomass (‘M-202’ type rice; BMPA 1 ppm): ~4 x Set 1; Height (‘M-202’ type rice; BMPA 1 ppm): ~1.2 x Set 1; Tillering (‘M-202’ type rice; BMPA 1 ppm): ~4 x Set 1; Biomass (‘M-202’ type rice; BMPA 5 ppm): ~4 x Set 1; Height (‘M-202’ type rice; BMPA 5 ppm): ~1.2 x Set 1; Tillering (‘M-202’ type rice; BMPA 5 ppm): ~4 x Set 1; Delay of the infestation of aphids on the cotton Bt plant ([1]; 5 ppm BMPA seed soak vs untreated): ≤ 19 days; Aphid infestation, Treated ([1]; 47 days after planting, 5 ppm BMPA, 3 hrs seed soak, control L-Aphid): No Aphid; Aphid infestation, Treated ([1]; 55 days after planting, control H-Aphid): No Aphid; Aphid infestation, Treated ([1]; 57 days after planting, control H-Aphid): L-Aphid; Aphid infestation, Treated ([1]; 74 days after planting, control Stressed): M-Aphid |
| Cc1ccc(C(=O)OCCN(C)Cc2ccccc2)cc1 [BMTA] | 13.64 | 65.08 | 70.85 | 1108 | 2867 | 13.10% and 13.01% and 14.82% | 77.35 gm and 73.58 gm and 61.64 gm | 1226 and 1157 and 942 | 3147 lbs and 2989 lbs and 2464 lbs | 71.43 and 67.86 and 55.94 | Observed growth from planting through completion of the study ([3]; 5 ppm BMTA, 1500 ppm NaCl irrigation): enhanced growth; Biomass [3, 9]: ~3 x Set 1; Height [3, 9]: Same; Tillering [3, 9]: ~3 x Set 1; % of Control (geranium slips; Day 11, total height vs water control slips): 186.49%; % of Control (geranium slips; Day 27, total height vs water control slips): 162.26% |
